Measurements: US20250090626A1, “NEW PEPTIDE AND USES THEREOF” (Neo Cremar Co., Ltd., priority 2021, published 2025)
No end group written: not given here.

What was measured:
Assay type in all cases: cell-based, mouse
3T3L1 cells [1] = assay: Adipodifferentiation of 3T3L1 cells, Oil red O staining; details: 3T3L1, adipocyte-induced differentiation medium with Ac-MIF1, 4 days; FIG. 13B
Description: For differentiation of 3T3L1 cells into adipocytes, when the cells grew about 100% or more, they were replaced with differentiation medium (DMEM+10% FBS+1% P/S+10 ug/ml insulin+1 μM dexametazone+0.5 μM IBMX (3-isobutyl-1-methylxanthine)) and cultured for 2 days. After 2 days, MIF was treated in a medium including 10 ug/ml insulin to induce cell differentiation.
3T3L1 cells were treated with peptides and differentiated for 4 days, then the medium was removed, and the cells were washed with normal saline, treated with 10% formaldehyde, and left for 10 minutes. After 10 minutes, Oil-red O staining agents (6 ([…] Oil-red O reagent+1 ml 100% isopropanol):4 (distilled water)) were treated and left for 1 hour. After 1 hour, cells were washed with normal saline and then observed under a microscope. To measure the Oil-red O stained in the intracellularly differentiated cells, 100% isopropanol was added and collected, followed by measurement at 510 nm.

3T3L1 cells [2] = assay: 3T3L1 cell proliferation (MTT method); details: 3T3L1, Ac-MIF1 1000 nM, 2 days, FIG. 13A
Description: 3T3L1 cells, mouse fibroblasts, were cultured in Dulbecco's Modified Eagle's Medium (DMEM)+10% fetal bovine serum (FBS)+1% penicillin/streptomycin (P/S). To validate the effect of MIF peptide, 3T3L1 cells (2×10^3 cells/ml) were placed in a 12-well cell culture dish, attached for 24 hours, and treated with MIF peptide (1000 nM) for 2 days, followed by observation of cell proliferation by MTT method. The medium was replaced every 2 days, and the cells were cultured at 37° C.
To validate cell proliferation, the culture medium of the cells was removed, the cells were washed with DMEM, 500 μl of MTT reagent (0.5 mg/ml) dissolved in phosphate buffered saline (PBS) was added to each well, and the cells were left at 37° C. for 1 hour. The reaction solution was removed, and 1000 μl of DMSO was added to each well. Purple formazan crystals were completely dissolved in DMSO, and the absorbance was measured at 540 nm.

C2C12 cells [3] = assay: Protein expression of myodifferentiation and sarcopenia factors (Western blot, immunocytochemistry); details: C2C12 myodifferentiation, peptide-treated vs untreated
Description: The medium of cultured C2C12 cells was removed and washed once with PBS. The washed cells were treated with 4% formaldehyde (Sigma), fixed for 15 minutes, then washed using PBS, added with 0.2% trypton X-100 (Sigma), and left for 5 minutes. After washing again using PBS, adding 1% normal goat serum, and leaving for 30 minutes, the primary antibody (MYOD, myogenin (MYOG):myosin light chain (MYL2); 1:50) was added to carry out a reaction at 4° C. for 14 hours. The antibodies were removed, washing was performed 3 times with PBS for 10 minutes, and then the cells were left with secondary antibody (Alexa Fluor 488 goat anti-Mouse & rabbit SFX kit t) for 1 hour. After 1 hour, the antibodies were removed, washing was performed with PBS for 10 minutes, the nuclei were stained with 4′,6-diamidino-2-phenylindol (DAPI), and the expression of the proteins was observed using fluorescence microscopy.
(1) The medium of cultured C2C12 cells was removed, followed by washing with PBS. After adding LIPA buffer and protease inhibitor to the washed cells, the proteins included in the supernatant were collected after centrifugation for 10 minutes at 12000 rpm. 40 μg of the extracted proteins were subjected to electrophoresis in 8 to 10% acrylamide gel and then transferred to a polyvinylidene fluoride (PVDF) membrane (Milipore). These were blocked with 3% skim milk or bovine serum albumin (BSA) at room temperature for 1 hour. Afterwards, primary antibody diluted in 1% skim milk or BSA (Pax7; 1:500, MYOD; 1:500, MYOG; 1:400, MYL2; 1:1000, MYH; 1:500, MSTN; 1:1000, β-actin; 1:1000, MuRF1; 1:400, and Atrogin; 1:1:400) was added and reacted at 4° C. for over 16 hours. After 16 hours, cells were washed three times with TBST (Tris-buffered saline with Tween 20) and reacted with secondary antibody with horseradish peroxidase (HRP) conjugated at room temperature for 1 hour. It was washed three times with TBST and developed after adding Super Signal West Pico Chemiluminescent Substrate.

C2C12 cells [4] = assay: mRNA expression of myodifferentiation and sarcopenia factors (real-time PCR); details: C2C12 myodifferentiation, peptide-treated vs untreated
Description: After adding 1 ml of TRIzol™ reagent, the cells were crushed using a sonicator. After centrifugation of the crushed sample (12,000 rpm, 10 min, 4° C.), the supernatant was transferred to a new tube, added with 200 μl of chloroform, and left at room temperature for 10 minutes. After 10 minutes, centrifugation (12,000 rpm, 10 min, 4° C.) was performed, yielded a transparent supernatant. Next, 500 μl of isopropanol was added, the mixture was left for 10 minutes, and centrifugation was performed to obtain RNA pellets. After washing by adding 70% ethanol (distilled water treated with ethanol+diethylpyrocarbonate (hereinafter referred to as DEPC)) to the RNA pellets, complete removal and drying were followed. The dried transparent RNA was added with DEPC-treated distilled water and then stored at −80° C. Total RNA volume was measured by nanodrop, and the 18s and 28s bands were detected in 1.2% agarose gel. cDNA was synthesized with 2 μg of total RNA, random hexamer primers, and reverse transcriptase (25° C.: 10 min, 37° C.: 120 min, 85° C.: 5 min).
Real-time PCR (RT-PCR) was performed for detecting gene expression. For observation of real-time gene expression, gene expression was analyzed using the Power SYBR Green PCR Master Mix, which includes fluorescent materials of SYBR green (7500 Real-time PCR system). The PCR primer was designed with Primer 3 software (http://frodo.wi.mit.edu) according to the nucleotide sequence secured from NCBI GenBank. PCR was performed 40 times at 95° C. for 10 minutes, again at 95° C. for 33 seconds, at gene primer temperature (tm) for 33 seconds, and at 72° C. for 33 seconds. Gene expression values were analyzed through the analysis of c(t) values obtained through real-time PCR analysis (fold change 2-^ΔΔCt formula). Setting the gene expression value of the untreated cells to 1, the gene expression value of the treated cells was calculated. In the analysis of gene c(t) values, normalization was conducted with the glyceraldehyde-3-phosphate dehydrogenase (GAPDH).

Ac-VDFEAFWDWG [Ac-MIF1, MIF1 with N-terminus acetylated, 10 mer]
fat accumulation (Oil-red O intensity), decrease compared to cells without peptide treatment (3T3L1 cells [1]): 8% | proliferation of 3T3L1 cells, decrease compared to cells without peptide treatment (3T3L1 cells [2]): 8% | ACVRIIB protein expression (C2C12 cells [3]): reduced | Atrogin1 protein expression (C2C12 cells [3]): reduced | MSTN protein expression (C2C12 cells [3]): reduced | MYH protein expression (C2C12 cells [3]): increased | MYOD protein expression (C2C12 cells [3]): increased | MYOG protein expression (C2C12 cells [3]): increased | MYL2 mRNA expression (C2C12 cells [4]): increased | MYOD mRNA expression (C2C12 cells [4]): increased
